From patent US20240190831A1, “TRANSTHYRETIN STABILIZING COMPOUNDS” (Protego Biopharma, Inc., priority 2021, published 2024)

assay: In vivo rat PK (CSF/plasma and brain/plasma ratio of tafamidis); settings: oral dosing of test compound, over 24 hrs
Text: For a compound provided herein to be an effective TTR stabilizer drug to halt and/or prevent the ocular and cerebral TTR amyloid deposition TTR amyloidosis, it has to be able to penetrate into the brain and CSF (surrogate for eye penetration) and deliver a sufficient amount of TTR stabilizer to stop TTR dissociation. A pharmacokinetic study in rat was used to evaluate the compounds. Male Sprague-Dawley (SD) rats (200-220 g weight) were acclimated for at least 2 to 3 days before being placed on study. All animals had access to certified rodent diet and water at libitum. Appropriate amount of the test compound was accurately weighed and mixed with appropriate volume of vehicle (such as DMSO/sterile water for iv dosing or 0.5% methylcellulose homogenous suspension or solution for oral administration or as a solution in a mixture NMP/PEG400/solutol/water) to administer a dose of 2, 5 or 10 mg/kg. For IV dosing the test compound was administered via tail vein or indwelling cannula. For oral dosing, the test compound was administered by oral gavage. Blood and CSF samples were collected at selected timepoints. Blood collection was performed from saphenous vein or tail vein of each animal into polypropylene tubes at each timepoint. All blood samples were transferred into EDTA-K2 tubes and centrifuged for 15 minutes at 4° C. for plasma collection. Plasma samples were kept at −80° C. until LC/MSMS analysis. CSF was collected from cisterna magna at each timepoint and quick frozen over dry ice and kept at −80° C. until LC/MSMS analysis. Brains were harvested immediately after the terminal bleeding (˜24 hrs post dosing). The blood of the brain was perfused with normal saline. The brain was quickly picked and placed into centrifuge tube. The weight of brain samples was recorded. 4-Fold homogenization solution (MeOH/15 mM PBS (1:2)) was added into the tube according to the weighed samples. The brain was homogenized using a Polytron (3 strokes or more until homogenous, each 30 seconds) on wet ice. The samples were quick frozen over dry ice and kept at −80° C. until LC/MSMS analysis. Using a LC-MSMS method for the quantitative determination of test compound in biological matrixes, amount of test compound and active agent were measured in plasma and CSF at selected timepoints post-dosing and in brain at 24 hrs post dosing. Plasma concentration versus time data was analyzed by non-compartmental approaches using the Phoenix WinNonlin 6.3 software program. As reference, an oral dose of 2 mg/kg of tafamidis gave a CSF to plasma ratio over 24 hrs around 0.01 and a brain to plasma ratio at 24 hrs around 0.02.
Results from rat PK (CSF/plasma ratio and brain/plasma ratio at 24 hrs) are shown in Table 4B and Table 4C, respectively.

Tafamidis CSF/plasma Ratio over 24 hrs (po)	Compound
C (C is ≥0.02)	CN(C)CCNC(=O)c1ccc2nc(-c3cc(Cl)cc(Cl)c3)oc2c1 [Compound 7, 2-(3,5-dichlorophenyl)-N-(2-(dimethylamino)ethyl)benzo[d]oxazole-6-carboxamide]
B (B is ≥0.015 to <0.02)	CC(Cc1ncc[nH]1)OC(=O)c1ccc2nc(-c3cc(Cl)cc(Cl)c3)oc2c1 (stereo not drawn) [Compound 34, 1-(1H-imidazol-2-yl)propan-2-yl 2-(3,5-dichlorophenyl)benzo-[d]oxazole-6-carboxylate]
A (A is <0.015)	O=C(c1ccc2nc(-c3cc(Cl)cc(Cl)c3)oc2c1)N1CCCC(O)C1 (stereo not drawn) [Compound 83]
A (A is <0.015)	O=C(c1ccc2nc(-c3cc(Cl)cc(Cl)c3)oc2c1)N1CCC(O)C1 (stereo not drawn) [Compound 84]
A (A is <0.015)	O=C(c1ccc2nc(-c3cc(Cl)cc(Cl)c3)oc2c1)N1CC(O)C1 [Compound 93]

assay: In vitro rat liver S9 stability assay (formation of tafamidis); format: in vitro ADME; settings: rat liver S9, 1 μM test compound, 37° C.
Method: A stability assay in liver S9 (rat or human) was used to evaluate the ability of a compound provided herein to convert to an active TTR stabilizer. The test compound was added to liver S9 and incubated at 37° C. in a water bath at a concentration of 1 μM. At each time point (0, 5, 10, 20, 30 and 60 min), stop solution (tolbutamide plus labetalol) was added to precipitate protein and mixed thoroughly. After centrifugation, an aliquot of supernatant was analyzed by LC-MS/MS. The percentage of formation of active agent was calculated at each time point.

Formation of tafamidis at 60 min	Compound
A (A is <25%)	CN(C)CCNC(=O)c1ccc2nc(-c3cc(Cl)cc(Cl)c3)oc2c1 [Compound 7, 2-(3,5-dichlorophenyl)-N-(2-(dimethylamino)ethyl)benzo[d]oxazole-6-carboxamide]
A (A is <25%)	CC(Cc1ncc[nH]1)OC(=O)c1ccc2nc(-c3cc(Cl)cc(Cl)c3)oc2c1 (stereo not drawn) [Compound 34, 1-(1H-imidazol-2-yl)propan-2-yl 2-(3,5-dichlorophenyl)benzo-[d]oxazole-6-carboxylate]
A (A is <25%)	O=C(OC1CCN(CCO)C1)c1ccc2nc(-c3cc(Cl)cc(Cl)c3)oc2c1 (stereo not drawn) [Compound 66]
A (A is <25%)	COCCN1CCC(OC(=O)c2ccc3nc(-c4cc(Cl)cc(Cl)c4)oc3c2)C1 (stereo not drawn) [Compound 67, 1-(2-methoxyethyl) pyrrolidin-3-yl 2-(3,5-dichlorophenyl) benzo[d]oxazole-6-carboxylate]
A (A is <25%)	CC(Cc1cnc[nH]1)OC(=O)c1ccc2nc(-c3cc(Cl)cc(Cl)c3)oc2c1 (stereo not drawn) [Compound 80]
A (A is <25%)	O=C(c1ccc2nc(-c3cc(Cl)cc(Cl)c3)oc2c1)N1CCOCC1 [Compound 81]
A (A is <25%)	O=C(c1ccc2nc(-c3cc(Cl)cc(Cl)c3)oc2c1)N1CCC(O)CC1 [Compound 82]
A (A is <25%)	O=C(c1ccc2nc(-c3cc(Cl)cc(Cl)c3)oc2c1)N1CCCC(O)C1 (stereo not drawn) [Compound 83]
A (A is <25%)	O=C(c1ccc2nc(-c3cc(Cl)cc(Cl)c3)oc2c1)N1CCC(O)C1 (stereo not drawn) [Compound 84]
A (A is <25%)	O=C(c1ccc2nc(-c3cc(Cl)cc(Cl)c3)oc2c1)N1CCCC1CO (stereo not drawn) [Compound 85]
A (A is <25%)	O=C(c1ccc2nc(-c3cc(Cl)cc(Cl)c3)oc2c1)N1CC(O)C(F)(F)C1 (stereo not drawn) [Compound 86]
A (A is <25%)	CN(C)C(=O)c1ccc2nc(-c3cc(Cl)cc(Cl)c3)oc2c1 [Compound 87, 2-(3,5-Dichlorophenyl)-N,N-dimethylbenzo[d]oxazole-6-carboxamide]
A (A is <25%)	O=C(c1ccc2nc(-c3cc(Cl)cc(Cl)c3)oc2c1)N1CCCC1 [Compound 88]
A (A is <25%)	O=C(c1ccc2nc(-c3cc(Cl)cc(Cl)c3)oc2c1)N1CCCCC1 [Compound 89]
A (A is <25%)	O=C(c1ccc2nc(-c3cc(Cl)cc(Cl)c3)oc2c1)N(CCO)CC(F)F [Compound 90]
A (A is <25%)	O=C(c1ccc2nc(-c3cc(Cl)cc(Cl)c3)oc2c1)N(CCO)CCF [Compound 91]
A (A is <25%)	CC1(O)CCN(C(=O)c2ccc3nc(-c4cc(Cl)cc(Cl)c4)oc3c2)C1 (stereo not drawn) [Compound 92]
A (A is <25%)	O=C(c1ccc2nc(-c3cc(Cl)cc(Cl)c3)oc2c1)N1CC(O)C1 [Compound 93]
A (A is <25%)	O=C(c1ccc2nc(-c3cc(Cl)cc(Cl)c3)oc2c1)N1CC2(CC(O)C2)C1 [Compound 94]
A (A is <25%)	O=C(c1ccc2nc(-c3cc(Cl)cc(Cl)c3)oc2c1)N1CCCCC1CO (stereo not drawn) [Compound 95]
A (A is <25%)	O=C(N[C@H]1CC[C@@H](O)CC1)c1ccc2nc(-c3cc(Cl)cc(Cl)c3)oc2c1 [Compound 96]
A (A is <25%)	O=C(N[C@H]1CC[C@H](O)CC1)c1ccc2nc(-c3cc(Cl)cc(Cl)c3)oc2c1 [Compound 97]
A (A is <25%)	O=C(NC1CC2(CC(O)C2)C1)c1ccc2nc(-c3cc(Cl)cc(Cl)c3)oc2c1 (stereo not drawn) [Compound 98]
A (A is <25%)	O=C(N[C@@H]1CCC[C@H](O)C1)c1ccc2nc(-c3cc(Cl)cc(Cl)c3)oc2c1 [Compound 99]
A (A is <25%)	O=C(N[C@@H]1CCC[C@@H](O)C1)c1ccc2nc(-c3cc(Cl)cc(Cl)c3)oc2c1 [Compound 100]

Formation of tafamidis at 60 min	Compound
A (A is <25%)	CC1(O)CCCN(C(=O)c2ccc3nc(-c4cc(Cl)cc(Cl)c4)oc3c2)C1 (stereo not drawn) [Compound 102]
A (A is <25%)	CC1(O)CCN(C(=O)c2ccc3nc(-c4cc(Cl)cc(Cl)c4)oc3c2)CC1 [Compound 103]
A (A is <25%)	O=C(c1ccc2nc(-c3cc(Cl)cc(Cl)c3)oc2c1)N1CCC2(CC(O)C2)C1 (stereo not drawn) [Compound 105]
A (A is <25%)	CC1(O)CC2(CCN(C(=O)c3ccc4nc(-c5cc(Cl)cc(Cl)c5)oc4c3)C2)C1 (stereo not drawn) [Compound 106]
A (A is <25%)	O=C(c1ccc2nc(-c3cc(Cl)cc(Cl)c3)oc2c1)N1CC2(CCC(O)C2)C1 (stereo not drawn) [Compound 107]
A (A is <25%)	O=C(c1ccc2nc(-c3cc(Cl)cc(Cl)c3)oc2c1)N1C[C@@H]2[C@H](O)[C@@H]2C1 [Compound 108]
A (A is <25%)	O=C(c1ccc2nc(-c3cc(Cl)cc(Cl)c3)oc2c1)N1C[C@@H]2[C@@H](O)[C@@H]2C1 [Compound 109]
A (A is <25%)	CC1(O)CC2(CN(C(=O)c3ccc4nc(-c5cc(Cl)cc(Cl)c5)oc4c3)C2)C1 [Compound 110]
A (A is <25%)	CC1(O)CCC2(CN(C(=O)c3ccc4nc(-c5cc(Cl)cc(Cl)c5)oc4c3)C2)C1 (stereo not drawn) [Compound 111]
A (A is <25%)	O=C(c1ccc2nc(-c3cc(Cl)cc(Cl)c3)oc2c1)N1CCC(F)C1 (stereo not drawn) [Compound 112]
A (A is <25%)	O=C(c1ccc2nc(-c3cc(Cl)cc(Cl)c3)oc2c1)N1CC(F)(F)C[C@H]1CO [Compound 113]
A (A is <25%)	O=C(c1ccc2nc(-c3cc(Cl)cc(Cl)c3)oc2c1)N1CC[C@@H](O)[C@@H](F)C1 [Compound 114]
A (A is <25%)	O=C(c1ccc2nc(-c3cc(Cl)cc(Cl)c3)oc2c1)N1CCCCC(F)(F)C1 [Compound 115]
A (A is <25%)	O=C(c1ccc2nc(-c3cc(Cl)cc(Cl)c3)oc2c1)N1CCC(O)C(F)(F)C1 (stereo not drawn) [Compound 116]
A (A is <25%)	CC1(OC(=O)c2ccc3nc(-c4cc(Cl)cc(Cl)c4)oc3c2)CCNC1.Cl (stereo not drawn) [Compound 117]
A (A is <25%)	O=C(c1ccc2nc(-c3cc(Cl)cc(Cl)c3)oc2c1)N1CCCC1C(F)(F)F (stereo not drawn) [Compound 118]
A (A is <25%)	CC1(OC(=O)c2ccc3nc(-c4cc(Cl)cc(Cl)c4)oc3c2)CCN(CC(F)(F)F)C1 (stereo not drawn) [Compound 119]
A (A is <25%)	CC1(OC(=O)c2ccc3nc(-c4cc(Cl)cc(Cl)c4)oc3c2)CCN(CCF)C1 (stereo not drawn) [Compound 120]
A (A is <25%)	O=C(c1ccc2nc(-c3cc(Cl)cc(Cl)c3)oc2c1)N1C[C@@H](F)[C@@H](F)C1 [Compound 121]
C (C is ≥50 to <75%)	CC1(OC(=O)c2ccc3nc(-c4cc(Cl)cc(Cl)c4)oc3c2)CCN(CC(F)F)C1 (stereo not drawn) [Compound 122]
A (A is <25%)	CC1(OC(=O)c2ccc3nc(-c4cc(Cl)cc(Cl)c4)oc3c2)CCNCC1.Cl [Compound 123]
A (A is <25%)	CC1(OC(=O)c2ccc3nc(-c4cc(Cl)cc(Cl)c4)oc3c2)CCN(CC(F)(F)F)CC1 [Compound 124]
A (A is <25%)	O=C(c1ccc2nc(-c3cc(Cl)cc(Cl)c3)oc2c1)N1CC[C@H](O)[C@H](F)C1 [Compound 125]
A (A is <25%)	CCN1CCC(C)(OC(=O)c2ccc3nc(-c4cc(Cl)cc(Cl)c4)oc3c2)CC1 [Compound 126]
